Test results: ChEMBL document CHEMBL4825673, “Total and Semisyntheses of Polymyxin Analogues with 2-Thr or 10-Thr Modifications to Decipher the Structure-Activity Relationship and Improve the Antibacterial Activity” (J Med Chem, 2021)
≈ marks a conversion by molar mass, not a printed value. Starred links: 1 amine or outer side, 2 acyl side, 3 side chain; linkers in the order of their positions; H or OH if unused. Positions of bridges follow the written chain, without caps; N, C: chain ends. Non-standard residues stand in square brackets, D forms with d. Residues, ends and D or L forms follow the SMILES beside them. *: point of attachment. Heptanoyl(6-Me) = CC(C)CCCCC(=O)*; NH(2-ClPh) = Clc1ccccc1N*; X1 = CC[C@H](C)CCCCC(=O)*; Dab = NCC[C@H](N)C(=O)O; CO = O=C([*:1])[*:2]

What follows are molecules tested on Pseudomonas aeruginosa (assay: Antibacterial activity against Pseudomonas aeruginosa PAO1 assessed as inhibition of bacterial growth incubated for 24 hrs by broth microdilution method). Conditions: read-out: MIC100.
Assay type: functional

Structure (SMILES) | MIC [µg/mL]
CC[C@H](C)CCCCC(=O)N[C@@H](CCN)C(=O)N[C@H](C(=O)N[C@@H](CCN)C(=O)N[C@H]1CCNC(=O)[C@H]([C@@H](C)O)NC(=O)[C@H](CCN)NC(=O)[C@H](CCN)NC(=O)[C@H](CC(C)C)NC(=O)[C@@H](Cc2ccccc2)NC(=O)[C@H](CCN)NC1=O)[C@@H](C)OC(=O)[C@@H](N)Cc1c[nH]c2ccccc12 | 2 (≈ 1.44 µM)
CC(C)CCCCC(=O)N[C@@H](CCN)C(=O)N[C@@H](CC(=O)O)C(=O)N[C@@H](CCN)C(=O)N[C@H]1CCNC(=O)[C@H]([C@@H](C)O)NC(=O)[C@H](CCN)NC(=O)[C@H](CCN)NC(=O)[C@H](CC(C)C)NC(=O)[C@@H](Cc2ccccc2)NC(=O)[C@H](CCN)NC1=O | 64 (≈ 53.2 µM)
CC(C)CCCCC(=O)N[C@@H](CCN)C(=O)N[C@@H](CCN)C(=O)N[C@@H](CCN)C(=O)N[C@H]1CCNC(=O)[C@H]([C@@H](C)O)NC(=O)[C@H](CCN)NC(=O)[C@H](CCN)NC(=O)[C@H](CC(C)C)NC(=O)[C@@H](Cc2ccccc2)NC(=O)[C@H](CCN)NC1=O | 128 (≈ 108 µM)
CC[C@H](C)CCCCC(=O)N[C@@H](CCN)C(=O)N[C@H](C(=O)N[C@@H](CCN)C(=O)N[C@H]1CCNC(=O)[C@H]([C@@H](C)O)NC(=O)[C@H](CCN)NC(=O)[C@H](CCN)NC(=O)[C@H](CC(C)C)NC(=O)[C@@H](Cc2ccccc2)NC(=O)[C@H](CCN)NC1=O)[C@@H](C)OC(=O)[C@@H](N)CC(N)=O | 2 (≈ 1.52 µM)
CC(C)CCCCC(=O)N[C@@H](CCN)C(=O)N[C@H](C(=O)N[C@@H](CCN)C(=O)N[C@H]1CCNC(=O)[C@H]([C@@H](C)O)NC(=O)[C@H](CCN)NC(=O)[C@H](CCN)NC(=O)[C@H](CC(C)C)NC(=O)[C@@H](Cc2ccccc2)NC(=O)[C@H](CCN)NC1=O)[C@@H](C)OC(=O)[C@@H](N)CC(N)=O | 1 (≈ 0.767 µM)
CC[C@H](C)CCCCC(=O)N[C@@H](CCN)C(=O)N[C@H](C(=O)N[C@@H](CCN)C(=O)N[C@H]1CCNC(=O)[C@H]([C@@H](C)O)NC(=O)[C@H](CCN)NC(=O)[C@H](CCN)NC(=O)[C@H](CC(C)C)NC(=O)[C@@H](Cc2ccccc2)NC(=O)[C@H](CCN)NC1=O)[C@@H](C)OC(=O)[C@@H](N)[C@@H](C)O | 2 (≈ 1.53 µM)
CCCCCCCC(=O)N[C@@H](CCN)C(=O)N[C@@H](CS)C(=O)N[C@@H](CCN)C(=O)N[C@H]1CCNC(=O)[C@H]([C@@H](C)O)NC(=O)[C@H](CCN)NC(=O)[C@H](CCN)NC(=O)[C@H](CC(C)C)NC(=O)[C@@H](Cc2ccccc2)NC(=O)[C@H](CCN)NC1=O | 8 (≈ 6.71 µM)
CC[C@H](C)CCCCC(=O)N[C@@H](CCN)C(=O)N[C@H](C(=O)N[C@@H](CCN)C(=O)N[C@H]1CCNC(=O)[C@H]([C@@H](C)O)NC(=O)[C@H](CCN)NC(=O)[C@H](CCN)NC(=O)[C@H](CC(C)C)NC(=O)[C@@H](Cc2ccccc2)NC(=O)[C@H](CCN)NC1=O)[C@@H](C)OC(=O)[C@@H](N)CCCNC(=N)N | 2 (≈ 1.47 µM)
CC[C@H](C)CCCCC(=O)N[C@@H](CCN)C(=O)N[C@H](C(=O)N[C@@H](CCN)C(=O)N[C@H]1CCNC(=O)[C@H]([C@@H](C)O)NC(=O)[C@H](CCN)NC(=O)[C@H](CCN)NC(=O)[C@H](CC(C)C)NC(=O)[C@@H](Cc2ccccc2)NC(=O)[C@H](CCN)NC1=O)[C@@H](C)OC(=O)[C@@H](N)C(C)C | 2 (≈ 1.54 µM)
CC[C@H](C)CCCCC(=O)N[C@@H](CCN)C(=O)N[C@H](C(=O)N[C@@H](CCN)C(=O)N[C@H]1CCNC(=O)[C@H]([C@@H](C)O)NC(=O)[C@H](CCN)NC(=O)[C@H](CCN)NC(=O)[C@H](CC(C)C)NC(=O)[C@@H](Cc2ccccc2)NC(=O)[C@H](CCN)NC1=O)[C@@H](C)OC(=O)[C@@H](N)CCCCN | 2 (≈ 1.5 µM)
CC[C@H](C)[C@H](N)C(=O)O[C@H](C)[C@H](NC(=O)[C@H](CCN)NC(=O)CCCCC(C)C)C(=O)N[C@@H](CCN)C(=O)N[C@H]1CCNC(=O)[C@H]([C@@H](C)O)NC(=O)[C@H](CCN)NC(=O)[C@H](CCN)NC(=O)[C@H](CC(C)C)NC(=O)[C@@H](Cc2ccccc2)NC(=O)[C@H](CCN)NC1=O | 2 (≈ 1.54 µM)
CC(C)C[C@@H]1NC(=O)[C@@H](Cc2ccccc2)NC(=O)[C@H](CCN)NC(=O)[C@@H](NC(=O)[C@H](CCN)NC(=O)[C@@H](NC(=O)[C@H](CCN)NC(=O)CCCCCCCN(Cc2ccccn2)Cc2ccccn2)[C@@H](C)O)CCNC(=O)[C@H]([C@@H](C)O)NC(=O)[C@H](CCN)NC(=O)[C@H](CCN)NC1=O | 32 (≈ 23.1 µM)
CC(C)CCCCC(=O)N[C@@H](CCN)C(=O)N[C@H](C(=O)N[C@@H](CCN)C(=O)N[C@H]1CCNC(=O)[C@H]([C@@H](C)O)NC(=O)[C@H](CCN)NC(=O)[C@H](CCN)NC(=O)[C@H](CC(C)C)NC(=O)[C@@H](Cc2ccccc2)NC(=O)[C@H](CCN)NC1=O)[C@H](C)OC(=O)[C@@H](N)CCC(=O)O | 2 (≈ 1.52 µM)
CC(C)CCCCC(=O)N[C@@H](CCN)C(=O)N[C@H](C(=O)N[C@@H](CCN)C(=O)N[C@H]1CCNC(=O)[C@H]([C@@H](C)OC(=O)[C@H](C)N)NC(=O)[C@H](CCN)NC(=O)[C@H](CCN)NC(=O)[C@H](CC(C)C)NC(=O)[C@@H](Cc2ccccc2)NC(=O)[C@H](CCN)NC1=O)[C@@H](C)OC(=O)[C@H](C)N | 2 (≈ 1.5 µM)
CC[C@H](C)CCCCC(=O)N[C@@H](CCN)C(=O)N[C@H](C(=O)N[C@@H](CCN)C(=O)N[C@H]1CCNC(=O)[C@H]([C@@H](C)O)NC(=O)[C@H](CCN)NC(=O)[C@H](CCN)NC(=O)[C@H](CC(C)C)NC(=O)[C@@H](Cc2ccccc2)NC(=O)[C@H](CCN)NC1=O)[C@@H](C)OC(=O)[C@@H](N)CC(C)C | 4 (≈ 3.04 µM)
CC(C)CCCCC(=O)N[C@@H](CCN)C(=O)N[C@H](C(=O)N[C@@H](CCN)C(=O)N[C@H]1CCNC(=O)[C@H]([C@@H](C)O)NC(=O)[C@H](CCN)NC(=O)[C@H](CCN)NC(=O)[C@H](CC(C)C)NC(=O)[C@@H](Cc2ccccc2)NC(=O)[C@H](CCN)NC1=O)[C@@H](C)OC(=O)[C@@H](N)[C@@H](C)O | 2 (≈ 1.55 µM)
CC[C@H](C)CCCCC(=O)N[C@@H](CCN)C(=O)N[C@H](C(=O)N[C@@H](CCN)C(=O)N[C@H]1CCNC(=O)[C@H]([C@@H](C)O)NC(=O)[C@H](CCN)NC(=O)[C@H](CCN)NC(=O)[C@H](CC(C)C)NC(=O)[C@@H](Cc2ccccc2)NC(=O)[C@H](CCN)NC1=O)[C@@H](C)OC(=O)[C@@H]1CCCN1 | 2 (≈ 1.54 µM)
CC[C@H](C)CCCCC(=O)N[C@@H](CCN)C(=O)N[C@H](C(=O)N[C@@H](CCN)C(=O)N[C@H]1CCNC(=O)[C@H]([C@@H](C)O)NC(=O)[C@H](CCN)NC(=O)[C@H](CCN)NC(=O)[C@H](CC(C)C)NC(=O)[C@@H](Cc2ccccc2)NC(=O)[C@H](CCN)NC1=O)[C@@H](C)OC(=O)[C@@H](N)[C@@H](C)CC | 2 (≈ 1.52 µM)
CC(C)CCCCC(=O)N[C@@H](CCN)C(=O)N[C@H](C(=O)N[C@@H](CCN)C(=O)N[C@H]1CCNC(=O)[C@H]([C@@H](C)OC(=O)[C@@H](N)CC(=O)O)NC(=O)[C@H](CCN)NC(=O)[C@H](CCN)NC(=O)[C@H](CC(C)C)NC(=O)[C@@H](Cc2ccccc2)NC(=O)[C@H](CCN)NC1=O)[C@@H](C)OC(=O)[C@@H](N)CC(=O)O | 4 (≈ 2.82 µM)
CC(C)C[C@@H]1NC(=O)[C@@H](Cc2ccccc2)NC(=O)[C@H](CCN)NC(=O)[C@@H](NC(=O)[C@H](CCN)NC(=O)[C@@H](NC(=O)[C@H](CCN)NC(=O)Nc2ccccc2Cl)[C@@H](C)O)CCNC(=O)[C@H]([C@@H](C)O)NC(=O)[C@H](CCN)NC(=O)[C@H](CCN)NC1=O ({NH(2-ClPh)-CO}-[Dab]T[Dab][Dab][Dab][dF]L[Dab][Dab]T; lactam 4-C) | 4 (≈ 3.29 µM)
CC(C)CCCCC(=O)N[C@@H](CCN)C(=O)N[C@H](C(=O)N[C@@H](CCN)C(=O)N[C@H]1CCNC(=O)[C@H]([C@@H](C)O)NC(=O)[C@H](CCN)NC(=O)[C@H](CCN)NC(=O)[C@H](CC(C)C)NC(=O)[C@@H](Cc2ccccc2)NC(=O)[C@H](CCN)NC1=O)[C@@H](C)O [POLYMYXIN B2] ({Heptanoyl(6-Me)}-[Dab]T[Dab][Dab][Dab][dF]L[Dab][Dab]T; lactam 4-C) | 1 (≈ 0.841 µM)
CC[C@H](C)CCCCC(=O)N[C@@H](CCN)C(=O)N[C@H](C(=O)N[C@@H](CCN)C(=O)N[C@H]1CCNC(=O)[C@H]([C@@H](C)O)NC(=O)[C@H](CCN)NC(=O)[C@H](CCN)NC(=O)[C@H](CC(C)C)NC(=O)[C@@H](Cc2ccccc2)NC(=O)[C@H](CCN)NC1=O)[C@@H](C)OC(=O)[C@@H](N)CS | 2 (≈ 1.53 µM)
CCCCCCCC(=O)N[C@@H](CCN)C(=O)NCC(=O)N[C@@H](CCN)C(=O)N[C@H]1CCNC(=O)[C@H]([C@@H](C)O)NC(=O)[C@H](CCN)NC(=O)[C@H](CCN)NC(=O)[C@H](CC(C)C)NC(=O)[C@@H](Cc2ccccc2)NC(=O)[C@H](CCN)NC1=O | 64 (≈ 55.9 µM)
CC(C)CCCCC(=O)N[C@@H](CCN)C(=O)N[C@@H](CCC(N)=O)C(=O)N[C@@H](CCN)C(=O)N[C@H]1CCNC(=O)[C@H]([C@@H](C)O)NC(=O)[C@H](CCN)NC(=O)[C@H](CCN)NC(=O)[C@H](CC(C)C)NC(=O)[C@@H](Cc2ccccc2)NC(=O)[C@H](CCN)NC1=O | 128 (≈ 105 µM)
CCCCCCCC(=O)N[C@@H](CCN)C(=O)N[C@@H](CO)C(=O)N[C@@H](CCN)C(=O)N[C@H]1CCNC(=O)[C@H]([C@@H](C)O)NC(=O)[C@H](CCN)NC(=O)[C@H](CCN)NC(=O)[C@H](CC(C)C)NC(=O)[C@@H](Cc2ccccc2)NC(=O)[C@H](CCN)NC1=O | 2 (≈ 1.7 µM)
CC[C@H](C)CCCCC(=O)N[C@@H](CCN)C(=O)N[C@H](C(=O)N[C@@H](CCN)C(=O)N[C@H]1CCNC(=O)[C@H]([C@@H](C)O)NC(=O)[C@H](CCN)NC(=O)[C@H](CCN)NC(=O)[C@H](CC(C)C)NC(=O)[C@@H](Cc2ccccc2)NC(=O)[C@H](CCN)NC1=O)[C@@H](C)O (X1-[Dab]T[Dab][Dab][Dab][dF]L[Dab][Dab]T; lactam 4-C) | 2 (≈ 1.66 µM)
CCCCCCCC(=O)N[C@@H](CCN)C(=O)N[C@H](C(=O)N[C@@H](CCN)C(=O)N[C@H]1CCNC(=O)[C@H](CC(=O)O)NC(=O)[C@H](CCN)NC(=O)[C@H](CCN)NC(=O)[C@H](CC(C)C)NC(=O)[C@@H](Cc2ccccc2)NC(=O)[C@H](CCN)NC1=O)[C@@H](C)O | 64 (≈ 53.2 µM)
CC[C@H](C)CCCCC(=O)N[C@@H](CCN)C(=O)N[C@H](C(=O)N[C@@H](CCN)C(=O)N[C@H]1CCNC(=O)[C@H]([C@@H](C)OC(=O)[C@H](C)N)NC(=O)[C@H](CCN)NC(=O)[C@H](CCN)NC(=O)[C@H](CC(C)C)NC(=O)[C@@H](Cc2ccccc2)NC(=O)[C@H](CCN)NC1=O)[C@@H](C)OC(=O)[C@H](C)N | 2 (≈ 1.49 µM)
